Measured values: patent publication US20060167109A1, “Methods of reducing rhinovirus contagion and related compositions” (priority 2002, published 2006)
“And” between values parts separate entries of the source, which are not always exact repeats. Equal values may be shown once. Read-outs that look alike come from different tables or passages of the source.

Legend:
HRV3 [1] = assay: RNA replication, viral RNA synthesis; format: cell-based, human rhinovirus; settings: 2 μM, pleconaril-treated cells
Method: Immediately after uncoating, viral gene expression (protein translation) and viral RNA replication begin. However, uncoating must occur before either of these two processes can be initiated. In experiments conducted similarly to the uncoating experiment described above, an experiment was conducted to measure viral RNA synthesis in the presence and absence of pleconaril. At the end of the 2 hours temperature shift, actinomycin D was added to the culture medium to inhibit cellular DNA-dependent RNA synthesis. After 2 hours in the presence of actinomycin D, no cellular RNA synthesis was detectable. At that time, ^3H-uridine was added to the medium and the incubation was allowed to proceed 2.5 hours (a total of 6.5 hours post-attachment). Total cellular RNA was then recovered, electrophoresed on an agarose-urea gel and visualized by fluorography.
HeLa cells in 6 well plates were infected at an MOI of 5 PFU/cell with 1 mL of HRV3 for 1 hour at room temperature in the presence or absence of 2 μM pleconaril. After virus attachment, the incubation was continued for an additional 2 hrs at 33° C. (HRV3). The inoculum was then removed and 3 mL/well of M199 medium with 5% FBS and 5 μg/mL of actinomycin D was added with 2 μM pleconaril or DMSO only (0.5% final concentration). The cells were returned to the incubator for 2 hours, at which time 300 μCi of ^3H-uridine (Amersham) was added per well. […]

[2] = Single dose oral pharmacokinetics in fed healthy young subjects; format: in vivo, human; settings: for half-life: po, 400 mg
HRV3 [3] = assay: Low pH inactivation; format: cell-based, human rhinovirus; settings: 2 μM, pH 5.2, FIG. 4
Method: As a second indication of the direct interaction of the drug with the virion capsid, an experiment was conducted to examine the ability of pleconaril to protect HRV3 from low pH inactivation.
Approximately […] plaque forming units (PFU) of virus were incubated with 0.5% DMSO or 2 μM pleconaril (in 0.5% DMSO) overnight at 4° C. For HRV3, samples were diluted into sodium acetate buffer (1 M, pH 5.2 or pH 7.0) for 30 minutes on ice followed by neutralization with 2 volumes of 1M Tris-HCl, pH 8.0. All samples were extracted twice with chloroform prior to titration in the viral cytopathic effect assay on HeLa cells (see below).

[4] = Repeated dose pharmacokinetics, clinical dosing regimen; format: in vivo, human; settings: 400 mg TID for 5 days
Method: Plasma accumulation of pleconaril was modest (approximately two fold) when pleconaril was administered according to the clinical dosing regimen (400 mg TID for 5 days). The long terminal half-life had only a modest influence on pleconaril plasma concentration-time profiles for the clinical dosing regimen. The repeated dose pharmacokinetic profile of pleconaril was predictable from single dose data and, thus, the pharmacokinetic profile of pleconaril was time independent (FIG. 2).

HRV, four serotypes = assay: Virus yield reduction assay, single cycle of growth; format: cell-based, human rhinovirus; settings: all four viruses, nontoxic drug concentrations, MOI 1, 12 hours
Method: To assess the inhibition by pleconaril of HRV production from a single cycle of virus replication, virus yield experiments were performed. Cells were infected at a multiplicity of infection (MOI) of 1 infectious virion per cell with virus that had been pre-treated with pleconaril at various drug concentrations. After 12 hours of infection (a single replication cycle), the amount of virus produced was quantified. Pleconaril inhibited virus production in a concentration dependent manner. The yield of progeny virus was reduced by >99% for all four viruses at nontoxic drug concentrations.
Virus was pretreated with various concentrations of pleconaril for 1 hour at 4° C. Confluent, 1-day-old monolayers of Hela (WIS) cells in 6 well plates were infected with virus at a multiplicity of infection (MOI) of approximately 1 plaque-forming unit per cell. After a 1 hour attachment period at 33° C., the inoculum was removed, the monolayers were washed 3 times with Dulbeccos modified phosphate buffer (DPBS)(JRH Biosciences, Lenexa, Kans.) and overlaid with 3 ml of media containing either the appropriate concentration of pleconaril or drug solvent (0.25% DMSO) alone. Incubation was continued for 12 hours at 33° C. and 2.5% CO2. All plates were frozen/thawed 3 times at −80° C. prior to quantification of virus yield in the virus cytopathic effect assay.

HRV-2 = assay: Attachment inhibition, 35S-radiolabeled virus; format: cell-based, human rhinovirus; settings: HRV-2, LDL receptor, HeLa cells
Method: (§1) The ability of pleconaril to affect the attachment to cells of several HRV serotypes was examined. ^35S-radiolabeled virus was incubated with susceptible cells for 1 hour in the presence of various concentrations of pleconaril. Cell-associated virus was quantified by direct scintillation counting of cell lysates after removal of unbound virus.
(§2) ^35S-radiolabeled virus was preincubated with various concentrations of pleconaril or 0.5% DMSO alone for 1 hour at room temperature. Cells in 6 well plates were inoculated with 20,000 cpm of ^35S-radiolabeled virus/well in 0.5 mL of M199 medium with 5% FBS. Attachment was allowed to proceed for 1 hour at 33° C., at which time the inoculum was removed and the cells washed with 2 mL of medium. The cells were then lysed by a 15 minute incubation on ice in the presence of 250 μL/well of a solution containing detergent 1% Nonident P40 (NP40) and 20 mM chelator, ethylene diamine tetraacetic acid (EDTA) in water. Cell-associated radioactivity was quantified by liquid scintillation spectroscopy in a Wallac Model 1409 Liquid Scintillation Counter (Wallac Oy, Turku, Finland).

HRV-3 = assay: Attachment inhibition, 35S-radiolabeled virus; format: cell-based, human rhinovirus; settings: HRV-3, ICAM-1 receptor, FIG. 5
Method: as §1, §2

HRV-1A = assay: Attachment inhibition, 35S-radiolabeled virus; format: cell-based, human rhinovirus; settings: LDL receptor, HeLa cells
Method: as §1, §2

HRV-50 = assay: Attachment inhibition, 35S-radiolabeled virus; format: cell-based, human rhinovirus; settings: HRV-50, ICAM-1 receptor, FIG. 5
Method: as §1, §2

[5] = Pleconaril concentration in nasal mucus, clinical studies 843-043 and 843-044; settings: diluted samples, individual subjects
Method: Two hundred (200) μl of acetonitrile was added to 200 μl of each nasal mucus standard and sample. The samples and standards were vortex mixed and then centrifuged at 25° C. for 10 minutes at 2500 rpm. 170 μl of supernatant was removed from each standard and sample. Then, 30 μl of water was added. The mixture was vortex mixed and 40 μl was injected for quantitative analysis of pleconaril.
Standards and samples were analyzed via LC/MS/MS. • Mass Spec: Micromass Quattro • LC: Alliance 2790 • Mobile Phase: 85% Acetonitrile/15% 2 mM Ammonium Acetate (0.2% formic acid) • Flow Rate: 0.5 ml/min • Analytical Column: Luna C18 (2) 5μ, 50×3.00 mm (Phenomenex) • Source: ESI (Electrospray Ionization) • Ion Mode: Positive • MRM transition: 382>82
The Masslyns quantitation package was used to analyze the results. The method used was a linear (1/× weighted) external standard method of calibration.
Studies 843-043 and 843-044 were Phase III clinical trials for the acute treatment of viral respiratory infection (common cold) in which pleconaril was administered for five days (400 mg TID). These samples were selected based on the plasma concentrations measured on Day 3 of 6 (plasma concentrations at or above 1 μg/ml).
Nasal mucus samples were diluted with 2 ml of transport media during processing and prior to quantitative analysis.

[6] = human, plasma, fed healthy young subjects (N = 24), single oral dose 400 mg, mean

With `Cc1cc(CCCOc2c(C)cc(-c3noc(C(F)(F)F)n3)cc2C)on1` [pleconaril, 3-[3,5-dimethyl-4-[3-(3-methyl-5-isoxazolyl)propoxy]phenyl]-5-(trifluoromethyl)-1,2,4-oxadiazole] the “HRV3 RNA synthesis” value (HRV3 [1]) was “completely blocked”, the CL/F ([2]; fed healthy young subjects (N = 24), single oral dose 400 mg, mean) was 16.8 L/h and the alpha half-life ([2]; following oral absorption, alpha disposition phase) was roughly 2.8 h. It also gave a half-life ([2]; human, plasma, fed healthy young subjects (N = 24), single oral dose 400 mg, mean, read-out: T1/2 (converted)) of 186 h, a half-life ([2]; human, plasma, following oral absorption, alpha disposition phase, read-out: alpha half-life) of 2 to 3 h and a half-life ([2]; human, plasma, following oral absorption, read-out: terminal half-life (converted)) of roughly 180 h. For the same compound, the AUC(0-inf) [2, 6] was 29200 ng·h/mL, the Cmax [2, 6] was 2300 ng/mL and the Tmax [2, 6] was 3 h. For the same compound, the Vd/F ([2]; human, plasma, fed healthy young subjects (N = 24), single oral dose 400 mg, mean, read-out: Vz/F) was 4110 L, the “protection from low pH inactivation” value (HRV3 [3]) was “protect HRV3 from low pH-induced degradation” and the plasma accumulation [4] was “approximately two”. The “reduction of yield of progeny virus” value (HRV, four serotypes) was greater than 99%, the “attachment of virus to cells” value (HRV-2) was “able to bind to HeLa cells normally” and the “attachment of virus to cells” value (HRV-3) was “inhibited”. For the same compound, the “attachment of virus to cells” value (HRV-1A) was “able to bind to HeLa cells normally”, the “attachment of virus to cells” value (HRV-50) was “inhibited” and the “Pleconaril Concentration (Nasal Mucus)” value ([5]; Study 43, Day 3, 400 mg TID for five days) was 26.36 ng/mL and 10.22 ng/mL and 2.46 ng/mL and 1.20 ng/mL. For the same compound, the “Pleconaril Concentration (Nasal Mucus)” value ([5]; Study 43, Day 6, 400 mg TID for five days) was “BQL and 2.21 ng/ml and 33.93 ng/ml and 79.38 ng/ml”, the “Pleconaril Concentration (Nasal Mucus)” value ([5]; Study 44, Day 3, 400 mg TID for five days) was “BQL and 23.88 ng/ml and 2.51 ng/ml and 6.98 ng/ml” and the “Pleconaril Concentration (Nasal Mucus)” value ([5]; Study 44, Day 6, 400 mg TID for five days) was 1.77 ng/mL and 2.43 ng/mL. The concentration at 6 day ([5]; human, nasal mucus, oral, 400 mg TID, Pleconaril Concentration (Nasal Mucus), Study 44, Day 6, 400 mg TID for five days) was 1.68 ng/mL.
